Source: PubChem BioAssay AID248 (DTP/NCI, 2004)
“And” between values parts separate entries of the source, which are not always exact repeats. Equal entries are not always repeated. Toxic doses and inconclusive results are not listed.

System: L1210 leukemia ip in BDF1 mice, survival T/C
Assay: NCI In Vivo Anticancer Drug Screen. Data for tumor model L1210 Leukemia (intraperitoneal) in B6D2F1 (BDF1) mice
Conditions: endpoint: mean survival time, higher = longer survival
Method in brief: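 Transplantable tumor model; survival measured in treated vs vehicle control mice. Value = treated/control.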

[1] = dose: 100.0 mg/kg/injection, schedule: Q01DX001 (ip), vehicle: saline
[2] = dose: 200.0 mg/kg/injection, schedule: Q01DX001 (ip), vehicle: saline
[3] = dose: 100.0 mg/kg/injection, schedule: Q01DX009 (ip), vehicle: Klucel (hydroxypropylcellulose) (HPC)
[4] = dose: 200.0 mg/kg/injection, schedule: Q01DX009 (ip), vehicle: Klucel (hydroxypropylcellulose) (HPC)
[5] = dose: 400.0 mg/kg/injection, schedule: Q01DX009 (ip), vehicle: Klucel (hydroxypropylcellulose) (HPC)
[6] = dose: 100.0 mg/kg/injection, schedule: Q01DX001 (ip), vehicle: saline with Tween-80
[7] = dose: 200.0 mg/kg/injection, schedule: Q01DX001 (ip), vehicle: saline with Tween-80
[8] = dose: 400.0 mg/kg/injection, schedule: Q01DX001 (ip), vehicle: saline with Tween-80
[9] = dose: 100.0 mg/kg/injection, schedule: Q04DX002 (ip), vehicle: saline with Tween-80
[10] = dose: 200.0 mg/kg/injection, schedule: Q04DX002 (ip), vehicle: saline with Tween-80
[11] = dose: 400.0 mg/kg/injection, schedule: Q04DX002 (ip), vehicle: saline with Tween-80

With CC(C)CC(C)NCC(C)OC(=O)c1ccc(N)cc1 (stereo not drawn) the T/C (dose: 75.0 mg/kg/injection, schedule: Q01DX001 (ip), vehicle: other) was 110 % of control.
COc1ccc(N)cc1NC(C)=O was tested, and the T/C [1] was 102 % of control and the T/C [2] was 110 % of control.
With CCCCCCCCCCCCOCCOCCOCC(N)=O the T/C (dose: 100.0 mg/kg/injection, schedule: Q01DX009 (ip), vehicle: saline) was 104 % of control, the T/C (dose: 100.0 mg/kg/injection, schedule: Q04DX003 (ip), vehicle: saline) was 97 % of control and the T/C (dose: 200.0 mg/kg/injection, schedule: Q01DX009 (ip), vehicle: saline) was 100 % of control. For the same compound, the T/C (dose: 200.0 mg/kg/injection, schedule: Q04DX003 (ip), vehicle: saline) was 109 % of control, the T/C (dose: 400.0 mg/kg/injection, schedule: Q01DX009 (ip), vehicle: saline) was 96 % of control and the T/C (dose: 400.0 mg/kg/injection, schedule: Q04DX003 (ip), vehicle: saline) was 97 % of control.
With CC(=O)c1c(C)c([N+](=O)[O-])c(C(C)(C)C)c([N+](=O)[O-])c1C the T/C [3] was 100 % of control, the T/C [4] was 97 % of control and the T/C [5] was 96 % of control.
With O=C(Nc1ccc(C2=NCCN2)cc1)c1cc(Cl)cc(C(=O)Nc2ccc(C3=NCCN3)cc2)c1 the T/C (dose: 62.5 mg/kg/injection, schedule: Q01DX009 (ip), vehicle: saline) was 96 % of control and 104 % of control, the T/C (dose: 120.0 mg/kg/injection, schedule: Q01DX Z (oral), vehicle: carboxymethylcellulose (CMC)) was 102 % of control and the T/C (dose: 125.0 mg/kg/injection, schedule: Q01DX009 (ip), vehicle: saline) was 99 % of control and 106 % of control. For the same compound, the T/C (dose: 140.0 mg/kg/injection, schedule: Q01DX010 (ip), vehicle: saline) was 105 % of control, the T/C (dose: 140.0 mg/kg/injection, schedule: Q01DX Z (ip), vehicle: methylcellulose (MC)) was 107 % of control and 110 % of control and the T/C (dose: 210.0 mg/kg/injection, schedule: Q01DX010 (ip), vehicle: saline) was 109 % of control. For the same compound, the T/C (dose: 210.0 mg/kg/injection, schedule: Q01DX Z (ip), vehicle: methylcellulose (MC)) was 115 % of control, the T/C (dose: 240.0 mg/kg/injection, schedule: Q01DX Z (oral), vehicle: carboxymethylcellulose (CMC)) was 104 % of control and the T/C (dose: 250.0 mg/kg/injection, schedule: Q01DX009 (ip), vehicle: saline) was 96 % of control and 104 % of control. For the same compound, the T/C (dose: 315.0 mg/kg/injection, schedule: Q01DX010 (ip), vehicle: saline) was 98 % of control and 105 % of control, the T/C (dose: 315.0 mg/kg/injection, schedule: Q01DX Z (ip), vehicle: methylcellulose (MC)) was 179 % of control and the T/C (dose: 473.0 mg/kg/injection, schedule: Q01DX010 (ip), vehicle: saline) was 107 % of control and 110 % of control. For the same compound, the T/C (dose: 473.0 mg/kg/injection, schedule: Q01DX Z (ip), vehicle: methylcellulose (MC)) was 151 % of control, the T/C (dose: 480.0 mg/kg/injection, schedule: Q01DX Z (oral), vehicle: carboxymethylcellulose (CMC)) was 107 % of control and the T/C (dose: 500.0 mg/kg/injection, schedule: Q01DX009 (ip), vehicle: saline) was 103 % of control and 112 % of control. For the same compound, the T/C (dose: 960.0 mg/kg/injection, schedule: Q01DX Z (oral), vehicle: carboxymethylcellulose (CMC)) was 100 % of control.
For CN(C)CC(=O)CC12CC3CC(CC(C3)C1)C2, the T/C (dose: 100.0 mg/kg/injection, schedule: Q04DX002 (ip), vehicle: saline) was 94 % of control, the T/C (dose: 200.0 mg/kg/injection, schedule: Q04DX002 (ip), vehicle: saline) was 100 % of control and the T/C (dose: 400.0 mg/kg/injection, schedule: Q04DX002 (ip), vehicle: saline) was 89 % of control.
In the case of COC(=O)C(Br)c1ccc([N+](=O)[O-])cc1 (stereo not drawn), the T/C (dose: 12.5 mg/kg/injection, schedule: Q01DX009 (ip), vehicle: saline with Tween-80) is reported as 101 % of control, the T/C (dose: 12.5 mg/kg/injection, schedule: Q04DX003 (ip), vehicle: saline) is reported as 98 % of control and the T/C (dose: 25.0 mg/kg/injection, schedule: Q01DX009 (ip), vehicle: saline with Tween-80) is reported as 104 % of control. For the same compound, the T/C (dose: 25.0 mg/kg/injection, schedule: Q04DX003 (ip), vehicle: saline) was 101 % of control and the T/C (dose: 50.0 mg/kg/injection, schedule: Q04DX003 (ip), vehicle: saline) was 93 % of control.
In the case of O=C(O)c1c(F)c(F)c(-c2c(F)c(F)c(C(=O)O)c(F)c2F)c(F)c1F, the T/C [6] is reported as 93 % of control, the T/C [7] is reported as 95 % of control and the T/C [8] is reported as 93 % of control.
O=C1C=CC[C@H](/C=C/c2ccccc2)O1 was tested, and the T/C (dose: 50.0 mg/kg/injection, schedule: Q01DX001 (ip), vehicle: alcohol) was 101 % of control, the T/C (dose: 100.0 mg/kg/injection, schedule: Q01DX001 (ip), vehicle: alcohol) was 103 % of control and the T/C (dose: 200.0 mg/kg/injection, schedule: Q01DX001 (ip), vehicle: alcohol) was 101 % of control. The T/C (dose: 400.0 mg/kg/injection, schedule: Q01DX001 (ip), vehicle: alcohol) was 107 % of control.
In the case of Cc1ccccc1N1CCN(CCC(=O)c2cc3ccccc3o2)CC1, the T/C (dose: 5.0 mg/kg/injection, schedule: Q01DX009 (ip), vehicle: saline with Tween-80) is reported as 104 % of control, the T/C (dose: 9.5 mg/kg/injection, schedule: Q04DX003 (ip), vehicle: saline with Tween-80) is reported as 96 % of control and the T/C (dose: 10.0 mg/kg/injection, schedule: Q01DX009 (ip), vehicle: saline with Tween-80) is reported as 100 % of control. The T/C (dose: 18.0 mg/kg/injection, schedule: Q01DX001 (ip), vehicle: saline with Tween-80) was 94 % of control, the T/C (dose: 19.0 mg/kg/injection, schedule: Q04DX003 (ip), vehicle: saline with Tween-80) was 116 % of control and the T/C (dose: 20.0 mg/kg/injection, schedule: Q01DX009 (ip), vehicle: saline with Tween-80) was 106 % of control. The T/C (dose: 37.5 mg/kg/injection, schedule: Q01DX001 (ip), vehicle: saline with Tween-80) was 101 % of control.
CCCCC/C(C)=C1\Oc2c(C)c(C)cc(C)c2C1=O was tested, and the T/C [9] was 100 % of control, the T/C [10] was 107 % of control and the T/C [11] was 114 % of control.
For Cc1ccc(C)c(CNc2cc(=O)[nH]c(=O)[nH]2)c1, the T/C (dose: 100.0 mg/kg/injection, schedule: Q01DX001 (ip), vehicle: Klucel (hydroxypropylcellulose) (HPC)) was 97 % of control, the T/C (dose: 200.0 mg/kg/injection, schedule: Q01DX001 (ip), vehicle: Klucel (hydroxypropylcellulose) (HPC)) was 101 % of control and the T/C (dose: 400.0 mg/kg/injection, schedule: Q01DX001 (ip), vehicle: Klucel (hydroxypropylcellulose) (HPC)) was 97 % of control.
O=C(CN1C2CCC1CC(O)C2)NCC1C(c2ccccc2)C1c1ccccc1 (stereo not drawn) was tested, and the T/C (dose: 25.0 mg/kg/injection, schedule: Q04DX002 (ip), vehicle: Klucel (hydroxypropylcellulose) (HPC)) was 111 % of control, the T/C (dose: 50.0 mg/kg/injection, schedule: Q04DX002 (ip), vehicle: Klucel (hydroxypropylcellulose) (HPC)) was 95 % of control and the T/C (dose: 100.0 mg/kg/injection, schedule: Q04DX002 (ip), vehicle: Klucel (hydroxypropylcellulose) (HPC)) was 109 % of control.
With O=S(=O)(Cc1ccccc1)C(CCCc1ccccc1)S(=O)(=O)Cc1ccccc1 the T/C (dose: 100.0 mg/kg/injection, schedule: Q01DX001 (ip), vehicle: carboxymethylcellulose (CMC)) was 97 % of control, the T/C (dose: 200.0 mg/kg/injection, schedule: Q01DX001 (ip), vehicle: carboxymethylcellulose (CMC)) was 92 % of control and the T/C (dose: 400.0 mg/kg/injection, schedule: Q01DX001 (ip), vehicle: carboxymethylcellulose (CMC)) was 91 % of control.
In the case of CCCc1nnnn1C12CC3CC(CC(C3)C1)C2, the T/C [1] is reported as 102 % of control, the T/C [2] is reported as 100 % of control and the T/C (dose: 400.0 mg/kg/injection, schedule: Q01DX001 (ip), vehicle: saline) is reported as 93 % of control.
For Cc1c(-c2ccccc2)sc(N)c1C#N, the T/C [6] was 94 % of control, the T/C (dose: 100.0 mg/kg/injection, schedule: Q01DX009 (ip), vehicle: saline with Tween-80) was 93 % of control and 100 % of control and the T/C [9] was 94 % of control. The T/C (dose: 100.0 mg/kg/injection, schedule: Q04DX003 (ip), vehicle: saline with Tween-80) was 95 % of control, the T/C [7] was 93 % of control and the T/C (dose: 200.0 mg/kg/injection, schedule: Q01DX009 (ip), vehicle: saline with Tween-80) was 92 % of control. The T/C [10] was 94 % of control and 98 % of control, the T/C (dose: 200.0 mg/kg/injection, schedule: Q04DX003 (ip), vehicle: saline with Tween-80) was 100 % of control and the T/C [8] was 93 % of control. For the same compound, the T/C (dose: 400.0 mg/kg/injection, schedule: Q01DX009 (ip), vehicle: saline with Tween-80) was 100 % of control and 87 % of control, the T/C [11] was 96 % of control and the T/C (dose: 400.0 mg/kg/injection, schedule: Q04DX003 (ip), vehicle: saline with Tween-80) was 100 % of control.
O=C(O)CC1OCC=C2CN3CCC45C6=CC(=O)C(=O)C([N+](=O)[O-])=C6NC4C1C2CC35 (stereo not drawn) was tested, and the T/C (dose: 25.0 mg/kg/injection, schedule: Q01DX001 (ip), vehicle: carboxymethylcellulose (CMC)) was 98 % of control.
CCOc1ccc(NC(=O)CCC(=O)O)cc1 was tested, and the T/C [3] was 91 % of control, the T/C [4] was 93 % of control and the T/C [5] was 91 % of control.
O=C(CCl)NCCCCCNC(=O)CCl was tested, and the T/C [3] was 104 % of control and the T/C [4] was 105 % of control.
